Assay: xn = mol fraction of the nth substance listed
Settings: 101.3 kPa, Liquid; for viscosity: Capillary tube (Ostwald / Ubbelohde) method

CCC(=O)CC [pentan-3-one] + CCc1ccccc1
Settings	mass density, 293.15 K [kg/m3]	mass density, 303.15 K [kg/m3]	mass density, 313.15 K [kg/m3]	speed of sound, 293.15 K [m/s]	speed of sound, 303.15 K [m/s]	speed of sound, 313.15 K [m/s]	viscosity, 293.15 K [mPa·s]	viscosity, 303.15 K [mPa·s]	viscosity, 313.15 K [mPa·s]
x1 = 0.0911	867	855.9	848.3	1328.5	1290.2	1254.5	0.6538	0.5795	0.5116
x1 = 0.2055	865.5	855.1	847	1319	1281.9	1246.6	0.625	0.5539	0.4881
x1 = 0.3176	863.2	852.8	844.5	1309.6	1272.2	1237.2	0.6015	0.5281	0.4642
x1 = 0.4296	860.1	849.9	840.8	1298	1264.5	1227.2	0.5789	0.5046	0.4429
x1 = 0.5331	854.8	845.3	836.6	1287	1252.3	1217.5	0.5574	0.486	0.4247
x1 = 0.6387	848.5	839.6	830.6	1275	1242	1206	0.534	0.469	0.411
x1 = 0.7378	842.5	833.4	824.5	1263	1230	1195	0.516	0.454	0.399
x1 = 0.8322	835	826.8	817.5	1251	1217.5	1184.4	0.4975	0.441	0.388
x1 = 0.9245	826	818	808	1240.3	1206.6	1172.5	0.4811	0.4309	0.38
x1 = 1	814.4	804.7	794.9	1230.7	1197.8	1159.1	0.4714	0.4231	0.3799

CCC(=O)CC [pentan-3-one] + Cc1ccccc1C
Settings	mass density, 293.15 K [kg/m3]	mass density, 303.15 K [kg/m3]	mass density, 313.15 K [kg/m3]	speed of sound, 293.15 K [m/s]	speed of sound, 303.15 K [m/s]	speed of sound, 313.15 K [m/s]	viscosity, 293.15 K [mPa·s]	viscosity, 303.15 K [mPa·s]	viscosity, 313.15 K [mPa·s]
x1 = 0.0955	878	870.5	862.4	1357	1328	1287.6	0.7649	0.677	0.5965
x1 = 0.2073	875	868.5	859.4	1345.1	1315	1277	0.7182	0.638	0.565
x1 = 0.3191	871.1	863.1	855	1333.5	1303	1262	0.675	0.6003	0.533
x1 = 0.4298	865.3	857.3	848.8	1318.8	1287	1251	0.636	0.562	0.502
x1 = 0.5338	859.5	850.5	842.5	1306	1272	1238	0.6001	0.5271	0.474
x1 = 0.6363	852.1	844	835.5	1292.2	1255.8	1224	0.568	0.497	0.447
x1 = 0.7329	845	837.3	827.9	1279.4	1245	1208.3	0.537	0.4719	0.424
x1 = 0.8283	836.8	829.1	819.9	1266.2	1229	1194	0.51	0.4481	0.4034
x1 = 0.9242	826.3	817	808.2	1250.9	1213	1179.3	0.4882	0.4333	0.3872
x1 = 1	814.4	804.7	794.9	1230.7	1197.8	1159.1	0.4714	0.4231	0.3799

Source: the NIST ThermoML archive (doi:10.1021/je030151s)
